The structures appear in SMILES notation. Values joined by “and” are separate entries in the source; they are usually repeats but may differ in a detail not shown here. Equal values may be shown once.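 Five concentrations, 48 hours, 96-well plates. The concentration for 50% growth inhibition is given as GI50. TGI denotes the concentration required for complete inhibition of growth.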

Holding throughout (assay): inhibition of tumour cell growth, NCI panel, 48 h
Assay [1] has as its system A549 NSCLC.
The subject of assay [2] is MALME-3M melanoma.
The test system of assay [3] is MDA-MB-231 breast.
Assay [4] deals with MOLT-4 leukemia.
Assay [5] concerns NCI-H23 lung.
Assay [6] deals with OVCAR-4 ovarian.
In assay [7] the test system is OVCAR-5 ovarian.
Assay [8] deals with RPMI-8226 leukemia.
Assay [9] has as its system SK-MEL-2 melanoma.
For assay [10], the system named is SN12C renal.

Consider `Cc1ccccc1NC(=O)N/C(N)=N/c1nc(-c2cccc([N+](=O)[O-])c2)cs1`, for which the GI50 is 2.39 µM in [1]; 0.943 µM in assay [2]; 1.6 µM in assay [3]; 3.39 µM in assay [4]; 1.94 µM in assay [5]; 3.53 µM in assay [6]. Also, the GI50 in [7] is 4.34 µM; in assay [8] it was 3.09 µM; in assay [9] it was 3.21 µM; in [10] it was 3.37 µM. Moreover, the TGI in assay [1] was 6.98 µM; in assay [2], 4.73 µM; in assay [3] it was 4.03 µM; in assay [4], over 100 µM; in assay [5], 6.49 µM; in assay [6], over 100 µM. The TGI is over 100 µM in assay [7], over 100 µM in assay [8], 17.3 µM in assay [9] and 30.5 µM in [10].
In the case of `CCN(CC)CC(O)CNc1ccc(NCC2CO2)c2c1C(=O)c1ccccc1C2=O` (stereo not drawn), the TGI was 5.69 µM in assay [1]; 5.44 µM in assay [2]; 3.01 µM in [3]; 0.0582 µM and 0.0292 µM in assay [4]; 5.2 µM in [5]; 3.3 µM in [6]. Further, the TGI is 7.76 µM in assay [7]; 5.35 µM in assay [8]; 0.785 µM and 0.839 µM in [9]; 0.899 µM in [10]. Besides, the GI50 was 0.00515 µM in assay [4], 0.26 µM in assay [5] and 0.177 µM in assay [10].
Consider `NOCC(=O)O`, for which the GI50 in assay [1] was 49.5 µM; in assay [2], over 100 µM; in [3] it was 53.2 µM; in assay [4], over 100 µM; in [5], over 100 µM; in assay [6], over 100 µM. Further, the GI50 in assay [7] was over 100 µM; in assay [8] it was 58 µM; in assay [9], over 100 µM; in assay [10], over 100 µM. The TGI in assay [1], in assay [2], in [3], in [4], in [5] and in [6] was over 100 µM each time. Also, the TGI in assay [7], in assay [8], in assay [9] and in assay [10] was over 100 µM in each case.
Consider `O=C1Nc2ccc(C(=O)c3ccco3)cc2/C1=C/c1cc(Cl)c(O)c(Cl)c1`, for which the GI50 in [1] is 6.77 µM; in assay [2], 1.66 µM; in assay [3] it was 9.89 µM; in assay [4], 9.36 µM; in assay [5] it was 4.74 µM; in assay [6], 6.95 µM. Also, the GI50 in [7] was 8.35 µM; in assay [8], 4.02 µM; in assay [9], 2.86 µM; in assay [10], 6.53 µM. The TGI in assay [1] was over 24 µM; in assay [2], 11.1 µM; in [3] it was over 25 µM; in [4] it was 24.9 µM; in [5], 21.7 µM; in [6], over 25 µM. For the same molecule, the TGI is over 20 µM in assay [7], 12.5 µM in assay [8], 7.21 µM in assay [9] and over 25 µM in [10].
As to `Cc1cc(I)cc(CN(C)CCCN2CCSCC2)c1O`, the GI50 was 30.7 µM in [1]; 23.2 µM in [2]; 27.8 µM in [3]; 19.4 µM in assay [4]; 23.5 µM in [5]; 44.7 µM in [6]. Further, the GI50 in assay [7] is 29.1 µM; in assay [8] it was 18.8 µM; in [9] it was 19.2 µM; in [10], 76.6 µM. Besides, the TGI in [1] was over 100 µM; in assay [2], 44.6 µM; in assay [3], 92.3 µM; in assay [4], 41.6 µM; in assay [5], 65.1 µM; in [6] it was over 100 µM. The TGI in [7] was 92.4 µM; in assay [8] it was 44.4 µM; in assay [9], 39.9 µM; in assay [10] it was over 100 µM.
In the case of `COc1cc(OC)cc(C2CC(=O)Nc3c2c(C)nn3-c2nc3ccccc3[nH]2)c1` (stereo not drawn), the GI50 is 3.18 µM in assay [1]; 3.66 µM in [2]; 3.66 µM in [3]; 0.0728 µM in [4]; 2.79 µM in [5]; 4.64 µM in [6]. Also, the GI50 in [7] is 4.15 µM; in assay [8], 2.64 µM; in assay [9], 2.42 µM; in assay [10], 3.46 µM. For the same molecule, the TGI in [1] was 15.5 µM; in assay [2] it was over 100 µM; in assay [3], over 100 µM; in assay [4], 0.434 µM; in assay [5] it was 7.73 µM; in [6], over 100 µM. For the same molecule, the TGI in assay [7] is over 100 µM; in assay [8] it was 6.29 µM; in assay [9], 5.88 µM; in assay [10], over 100 µM.
As to `CCOC(=O)Nc1nc2ccc(Cn3cccc3)cc2[nH]1`, the TGI in assay [1] is over 100 µM; in assay [2], over 100 µM; in [3] it was over 27.2 µM; in [4] it was over 100 µM; in assay [5], over 100 µM; in assay [6], over 100 µM. Also, the TGI in assay [7], in [8], in assay [9] and in [10] was over 100 µM each time.
Turning to `CC1=C2[C@@H](CC1)[C@]1(C)O[C@@](C3CCCCC3)(C[C@H]1OC(=O)CO)[C@H]2OC(=O)/C=C/c1ccccc1`, the GI50 is 7.19 µM in [1]; 12 µM in assay [2]; 18.3 µM in assay [3]; 5.82 µM in assay [4]; 8.65 µM in assay [5]; 8.37 µM in assay [6]. For the same molecule, the GI50 in assay [7] is 15.2 µM; in assay [8], 9.51 µM; in assay [9], 11.5 µM; in assay [10], 0.318 µM. In addition, the TGI was 20.5 µM in assay [1]; 28 µM in [2]; 41.5 µM in [3]; 17.4 µM in assay [4]; 26.1 µM in assay [5]; 23.7 µM in assay [6]. The TGI in assay [7] is 37.1 µM; in assay [8], 33.2 µM; in [9], 27.9 µM; in assay [10] it was 15.1 µM.

For the origin of these results see PubChem BioAssay (NCI).
